Test results taken from patent US20160289663A1, “NOVEL CHIMERIC GENE ATF7IP-PDGFRB OF ACUTE LYMPHOBLASTIC LEUKEMIA” (priority 2013, published 2016).
Structures can show the parent of a compound that is named as a salt.

Key:
[1] = tested on: ATF7IP-PDGFRB-expressing Ba/F3 cells; test: Cell proliferation (WST) assay, ATF7IP-PDGFRB Ba/F3 transfectants without conditioned medium; settings: for effect on viable cell number: next-generation TKIs, FIG. 13
Description: (A) ATF7IP-PDGFRB-expressing Ba/F3 cells in the absence of WEHI-3-conditioned medium (CM) and Mock Ba/F3 cells in the presence of CM were each treated with or without either the PI3 kinase inhibitor LY294002 or the MEK inhibitor PD98059 at the indicated concentrations for 24 hours. Subsequently, the number of living cells was estimated for each type of the cells by WST assay in the same way as in FIG. 5B. The ratio of the OD value obtained from the inhibitor-treated cells relative to that obtained from the inhibitor-untreated cells was calculated and expressed as the means±SEM of triplicates. (B) ATF7IP-PDGFRB-expressing Ba/F3 cells were treated with PD98059 in the presence or absence of CM, and examined in the same way as in (A). […]
The data were analyzed by F-test. P values less than 0.05 were considered significant. All experiments were performed at least three times to calculate means and SEM values.

Mock Ba/F3 cells = test: Cell proliferation (WST) assay, Mock Ba/F3 cells with WEHI-3-conditioned medium; format: cell-based, mouse; settings: 24 hours, presence of conditioned medium, FIG. 10A
Description: The data were analyzed by F-test. P values less than 0.05 were considered significant.

[2] = tested on: phosphorylation of MAP kinases/AKT and PDGFRB in ATF7IP-PDGFRB-expressing Ba/F3 cells; test: Immunoblot of MAP kinase/AKT/PDGFRB phosphorylation in ATF7IP-PDGFRB Ba/F3 cells; format: cell-based, mouse; settings: immunoblotting, FIG. 11
Description: Cell lysates were prepared from the same sample preparations as in FIG. 10. Immunoblot analysis was performed in the same way as in FIG. 8. Abbreviations: None, without inhibitor; LY, with LY294002; and PD, with PD98059.
Immunoblot analysis was performed as in FIG. 8.
Immunoblot analysis was performed as described previously (Kiyokawa, et al., J Biol Chem, 1997, 272, 18656-18665; Tomita, et al., Leukemia Research, 2014, 38, 361-370) using the following antibodies: anti-phosphotyrosine (4G10; Merck Millipore), anti-PDGF receptor β (28E1), anti-phospho-PDGF receptor β Tyr751 (C63G6), anti-phospho-PDGF receptor β Tyr 771 (76D6), anti-phospho-PDGF receptor β Tyr1009 (42F9), anti-phospho-PDGF receptor β Tyr1021 (6F10), anti-phospho-p44/42 MAPK (ERK1/2, Tyr202/Tyr204), anti-phospho-p38 MAPK (Thr180/Tyr182), anti-phospho-JNK (Thr183/Tyr185, 81E11), anti-phospho-AKT (Ser473), anti-phospho-PLCγ1 (Tyr783), anti-Casitas B-lineage lymphoma binding (Cbl), anti-p38 MAPK antibody and anti-JNK antibody (Cell Signaling Technology); anti-ATF7IP (MCAF1) (Abcam, Cambridge, UK); anti-ERK, anti-PLCγ, (BD Biosciences, San Jose, Calif., USA); anti-β-actin (Sigma-Aldrich, St. Louis, Mo.); and horseradish peroxidase (HRP)-conjugated secondary antibody (Dako, Glostrup, Denmark). […]

[3] = tested on: recurrent Ph-like acute lymphoblastic leukemia bearing ATF7IP/PDGFRB translocation; test: Dasatinib monotherapy case report, MRD monitored by leukemia-specific genomic PCR; format: in vivo, human; settings: one patient, 66 mg/m^2/day
Description: (A) The therapeutic response was evaluated by fluorescence in situ hybridization (FISH), RT-PCR (Kobayashi K., et al., Br J Haematol, 2014, 165, 836-841), and genomic PCR.
This example describes a monotherapy with the tyrosine kinase inhibitor (TKI) dasatinib in a patient with recurrent Ph-like acute lymphoblastic leukemia bearing ATF7IP/PDGFRB translocation.

[4] = tested on: myeloid malignancies bearing PDGFRB fusion genes; settings: without secondary resistance; Cheah et al., Blood 2014; cited from earlier work
[5] = Mus musculus, BaF3, 48 h, read-out: viable cell number

COc1cccc(-c2cc(=O)c3ccccc3o2)c1N [PD98059]
cell death ([1]; 24 hours, absence of conditioned medium, FIG. 10A): induced cell death | MEK inhibitor-induced cell death with simultaneous conditioned medium containing IL3 ([1]; presence of conditioned medium, FIG. 10B): partially avoided | cell death (Mock Ba/F3 cells): not in the Mock-expressing Ba/F3 cells | phosphorylation of MAP kinase [2]: markedly reduced

Cc1ccc(NC(=O)c2ccc(CN3CCN(C)CC3)cc2)cc1Nc1nccc(-c2cccnc2)n1 [imatinib]
cell proliferation ([1]; IL-3-independent proliferation, exposure to TKI): significantly inhibited in a concentration-dependent manner | viability at 0.025 µM [1, 5]: < 10%

Cc1cn(-c2cc(NC(=O)c3ccc(C)c(Nc4nccc(-c5cccnc5)n4)c3)cc(C(F)(F)F)c2)cn1 [nilotinib]
effect on viable cell number [1]: effectively reduced the viable cell number

CNC(=O)c1cc(Oc2ccc(NC(=O)Nc3cc(C(C)(C)C)nn3-c3ccc4ncccc4c3)c(F)c2)ccn1 [rebastinib]
effect on viable cell number [1]: effectively reduced the viable cell number

Cc1nc(Nc2ncc(C(=O)Nc3c(C)cccc3Cl)s2)cc(N2CCN(CCO)CC2)n1 [dasatinib]
viability at 0.0025 µM [1, 5]: < 10% | duration of complete molecular remission [3]: ≥ 12 months | time to disappearance of MRD ([3]; leukemia-specific genomic PCR): ≤ 3 months

Cc1ccc(NC(=O)c2ccc(CN3CCN(C)CC3)cc2)cc1Nc1nccc(-c2cccnc2)n1 [imatinib mesylate]
10-year overall survival rate [4]: 90%
